# Source: patent US20190284192A1, “NITROGENOUS MACROCYCLIC COMPOUND, PREPARATION METHOD THEREFOR, PHARMACEUTICAL COMPOSITION AND APPLICATION THEREOF” (LUOXIN PHARMACEUTICAL (SHANGHAI) CO., LTD., priority 2016, published 2019)
# pIC50: −log10 of the molar value.
# Experiments:
# BRD4 (BD1) = target: T1, BRD4 (BD1) (Homo sapiens, UniProt O60885); assay: BRD4 (BD1) bromodomain binding, HTRF; conditions: 2 h incubation at r.t.
# T1 construct: Each member comprises two tandem bromodomains (BD1 and BD2) for recognizing the acetylated lysine residues
# BRD4 (BD2) = target: T2, BRD4 (BD2) (Homo sapiens, UniProt O60885); assay: BRD4 (BD2) bromodomain binding, HTRF; conditions: 2 h incubation at r.t.
# T2 construct: Each member comprises two tandem bromodomains (BD1 and BD2) for recognizing the acetylated lysine residues
# MV-4-11 cells = assay: Inhibitory effect on MV-4-11 cells (CellTiter-Glo); assay type: cell-based; conditions: Homo sapiens, MV4-11; 72 hours, CellTiter-Glo; read-out: MV-4-11
# Experimental: The 1st Day: Seed the Cells on the Plate
# 1. The cells were verified that they were in good conditions by observation under microscope;
# 2. The cells were transferred to a 15 mL centrifuge tube, after centrifuged at 1000 rpm for 5 min, the supernatant was discarded;
# 3. The complete medium (IMDM+10% FBS) was added, then blown and patted into single cell suspension, counted by Vi-cell cytometer, the cell suspension was adjusted to desired cell density by the complete medium.
# 4. The cells were inoculated into a 96 well plate, the cell number was 15000/well at 100 μL per well, 100 μL complete medium was added into the black control.
# 5. 37° C., 5% CO2 culture overnight.
# The 2nd Day: Addition of the Drugs
# 1. 1000× Compound Plate Preparation
# 1.1. The test compound was prepared into 10 mM working solution by using DMSO. Then the STS was prepared into 2 mM working solution by using DMSO.
# 1.2. In the round bottom 96 wells plate, the column 2 of row A to H was added into 60 μL 10 mM test compound (or STS) working solution, columns 3-11 were added into 40 μL DMSO, 20 μL drug solution was pipetted from the column 2 to the column 3, blown and patted for a homogeneous mixture; then 20 μL solution was pipetted from the column 3 to the column 4, blown and patted for a homogeneous mixture, sequently, the drug was diluted by 3 times, 10 concentrations in total. The columns 1 and 12 were supplemented with 40 μL of DMSO.
# 2. Intermediate plate areparation
# A sterile V-bottom 96 deep well plate was used and in each well, 495 μL FBS-free PRMI 1640 medium was added, then 5 μL of the diluted compound (or DMSO) in the 1000× compound plate was pipetted into corresponding position of the V-bottom 96 well plate, blown and patted evenly.
# 3.1. The cell plate was taken out from the incubator and was observed under microscope. The diluted compound or DMSO in the intermediate plate was added into the cell plate, 11 μL each well.
# 3.2. The cell was continued to be cultured at 37° C., 5% CO2 for 72 hours.
# The 5th Day: CellTiter-Glo Detection of the Cell Activity
# 1. The CellTiter-Glo buffer and the reaction substrate were taken out from the refrigerator, after balanced to r.t., the buffer was poured into a brown bottle containing the substrate, the bottle was upside down to have the substrate powder sufficientaly dissolved.
# 2. The cell was observed under microscope; the cell plate was balanced to r.t.
# 3. The prepared CellTiter-Glo was added into the 96 well plate, at 100 μL/well.
# 4. The cell plate was placed on a shaker for 10 min, followed by standing at r.t. for 10 min.
# 5. A white seal film was attached to the bottom of the well plate, and the chemiluminescence signal of each well was detected by the Enspire microplate detector.
# 6. XLfit was used for data processing. Inhibition rate %=(d−c)/(d−b)×100, while d is the signal value of the DMSO treated group, c is the signal value of the compound treated group, b is signal value of the blank control that only containing medium and DMSO without cells. The data was fitted using the f(x)205[fit=(A+((B−A)/(1+((C/x)^∧D))))] equation in the XLfit software.
structure (smiles),measurement,setting,value
"C[C@@H]1N=C(c2ccc(F)cc2)c2cc(Cl)c(NS(=O)(=O)C3CC3)cc2-c2cn(C)c(=O)cc21 [Compound 4080, (S)—N-(9-chloro-7-(4-flurophenyl)-2,5-dimethyl-3-oxo-3,5-dihydro-2H-benzo[c]pyrido[3,4-e]azepin-10-yl)cyclopropylsulfamide]",pIC50,BRD4 (BD1),8.70
same,pIC50,BRD4 (BD2),9.00
same,pIC50,MV-4-11 cells,8.52
"C[C@@H]1N=C(c2ccc(F)cc2)c2cc(Cl)c(N)cc2-c2cn(C)c(=O)cc21 [Compound 4069, (S)-10-amino-9-chloro-7-(4-flurophenyl)-2,5-dimethyl-2,5-dihydro-3H-benzo[c]pyrido[3,4-e]azepin-3-ketone]",pIC50,BRD4 (BD1),8.40
same,pIC50,BRD4 (BD2),8.70
same,pIC50,MV-4-11 cells,7.46
"CCS(=O)(=O)Nc1ccc2c(c1)-c1cn(C)c(=O)cc1[C@H](C)N=C2c1ccc(F)cc1 [Compound 4049, (S)—N-(7-(4-flurophenyl)-2,5-dimethyl-3-oxo-3,5-dihydro-2H-benzo[c]pyrido[3,4-e]azepin-10-yl)ethylsulfonamide]",pIC50,BRD4 (BD1),8.70
same,pIC50,BRD4 (BD2),9.00
same,pIC50,MV-4-11 cells,9.00
CCS(=O)(=O)Cc1ccc2c(c1)-c1cn(C)c(=O)cc1[C@H](C)N=C2c1ccc(F)cc1F [Compound 4046],pIC50,BRD4 (BD1),9.00
same,pIC50,BRD4 (BD2),9.00
same,pIC50,MV-4-11 cells,8.40
"CCS(=O)(=O)Nc1cc2c(cc1Cl)C(c1ccc(Cl)cc1)=N[C@@H](C)c1cc(=O)n(C)cc1-2 [Compound 4068, (S)—N-(9-chloro-7-(4-chlorophenyl)-2,5-dimethyl-3-oxo-3,5-dihydro-2H-benzo[c]pyrido[3,4-e]azepin-10-yl)ethylsulfonamide]",pIC50,BRD4 (BD1),9.00
same,pIC50,BRD4 (BD2),9.30
same,pIC50,MV-4-11 cells,9.00
"CCS(=O)(=O)Cc1cc2c(cc1O)C(c1ccc(F)cc1)=N[C@@H](C)c1cc(=O)n(C)cc1-2 [Compound 4063, (S)-10-((ethylsulfonyl)methyl)-7-(4-flurophenyl)-9-hydroxyl-2,5-dimethyl-2,5-dihydro-3H-benzo[c]pyrido[3,4-e]azepin-3-ketone]",pIC50,BRD4 (BD1),9.00
same,pIC50,BRD4 (BD2),9.00
same,pIC50,MV-4-11 cells,8.52
"CCS(=O)(=O)Cc1cnc2c(c1)-c1cn(C)c(=O)cc1CN=C2c1ccc(F)cc1 [Compound 4022, 10-((ethylsulfonyl)methyl)-7-(4-fluorophenyl)-2-methyl-2,5-dihydro-3H-dipyrido[2,3-c: 3′,4′-e]azepin-3-ketone]",pIC50,BRD4 (BD1),7.92
same,pIC50,BRD4 (BD2),8.15
same,pIC50,MV-4-11 cells,6.72
"CCS(=O)(=O)Cc1ccc2c(c1)-c1cn(C)c(=O)cc1[C@H](C)N=C2c1ccc(F)c(OC)c1 [Compound 4054, (S)-10-((ethylsulfonyl)methyl)-7-(4-fluoro-3-methoxylphenyl)-2,5-dimethyl-2,5-dihydro-3H-benzo[c]pyrido[3,4-e]azepin-3-ketone]",pIC50,BRD4 (BD1),8.70
same,pIC50,BRD4 (BD2),9.00
same,pIC50,MV-4-11 cells,8.05
"CCS(=O)(=O)Cc1ccc2c(c1)-c1cn(C)c(=O)cc1[C@H](C)N=C2c1ccc(F)c(O)c1 [Compound 4064, (S)-10-((ethylsulfonyl)methyl)-7-(4-fluoro-3-hydroxylphenyl)-2,5-dimethyl-2,5-dihydro-3H-benzo[c]pyrido[3,4-e]azepin-3-ketone]",pIC50,BRD4 (BD1),8.70
same,pIC50,BRD4 (BD2),9.00
same,pIC50,MV-4-11 cells,8.10
"CCS(=O)(=O)Cc1ccc2c(c1)-c1cn(C)c(=O)cc1[C@H](C(C)C)N=C2c1ccc(F)cc1 [Compound 4060, (S)-10-((ethylsulfonyl)methyl)-7-(4-flurophenyl)-5-isopropyl-2-methyl-2,5-dihydro-3H-benzo[c]pyrido[3,4-e]azepin-3-ketone]",pIC50,BRD4 (BD1),8.70
same,pIC50,BRD4 (BD2),9.00
same,pIC50,MV-4-11 cells,7.72
"C[C@@H]1N=C(c2ccc(F)cc2)c2cc(Cl)c(NS(C)(=O)=O)cc2-c2cn(C)c(=O)cc21 [Compound 4079, (S)—N-(9-chloro-7-(4-flurophenyl)-2,5-dimethyl-3-oxo-3,5-dihydro-2H-benzo[c]pyrido[3,4-e]azepin-10-yl)methylsulfamide]",pIC50,BRD4 (BD1),8.52
same,pIC50,BRD4 (BD2),9.00
same,pIC50,MV-4-11 cells,9.00
"C[C@@H]1N=C(c2ccc(Cl)cc2)c2ccccc2-c2cn(C)c(=O)cc21 [Compound 4025, (S)-7-(4-chlorophenyl)-2,5-dimethyl-2,5-dihydro-3H-benzo[c]pyrido[3,4-e]azepin-3-ketone]",pIC50,BRD4 (BD1),8.15
same,pIC50,BRD4 (BD2),8.52
same,pIC50,MV-4-11 cells,7.27
"CCS(=O)(=O)Cc1ccc2c(c1)-c1cn(C)c(=O)cc1[C@H](CC(=O)O)N=C2c1ccc(F)cc1 [Compound 4067, (S)-2-(10-((ethylsulfonyl)methyl)-7-(4-flurophenyl)-2-methyl-3-oxo-3,5-dihydro-2H-benzo[c]pyrido[3,4-e]azepin-5-yl)acetic acid]",pIC50,BRD4 (BD1),8.22
same,pIC50,BRD4 (BD2),9.00
same,pIC50,MV-4-11 cells,< 5.70
"CCS(=O)(=O)Cc1ccc2c(c1)-c1cn(C)c(=O)cc1[C@H](C)N=C2c1ccc(Cl)cc1 [Compound 4037, (S)-10-((ethylsulfonyl)methyl)-7-(4-chlorophenyl)-2,5-dimethyl-2,5-dihydro-3H-benzo[c]pyrido[3,4-e]azepin-3-ketone]",pIC50,BRD4 (BD1),8.70
same,pIC50,BRD4 (BD2),9.00
same,pIC50,MV-4-11 cells,8.22
"CCNC(=O)C[C@@H]1N=C(c2ccc(F)cc2)c2ccc(CS(=O)(=O)CC)cc2-c2cn(C)c(=O)cc21 [Compound 4056, (S)—N-ethyl-2-(10-((ethylsulfonyl)methyl)-7-(4-flurophenyl)-2-methyl-3-oxo-3,5-dihydro-2H-benzo[c]pyrido[3,4-e]azepin-5-yl)acetamide]",pIC50,BRD4 (BD1),9.00
same,pIC50,BRD4 (BD2),9.00
same,pIC50,MV-4-11 cells,7.49
"COc1ccc2c(c1)-c1cn(C)c(=O)cc1CN=C2c1ccc(F)cc1 [Compound 4019, 7-(4-fluorophenyl)-10-methoxy-2-methyl-2,5-dihydro-3H-benzo[c]pyrido[3,4-e]azepin-3-one]",pIC50,BRD4 (BD1),8.00
same,pIC50,BRD4 (BD2),7.43
same,pIC50,MV-4-11 cells,6.84
"CCNC(=O)C[C@@H]1N=C(c2ccc(Cl)cc2)c2cc(F)ccc2-c2cn(C)c(=O)cc21 [Compound 4034, (S)-2-(7-(4-chlorophenyl)-9-fluoro-2-methyl-3-oxo-3,5-dihydro-2H-benzo[c]pyrido[3,4-e]azepin-5-yl)N-ethyl acetamide]",pIC50,BRD4 (BD1),8.40
same,pIC50,BRD4 (BD2),9.00
same,pIC50,MV-4-11 cells,7.82
CCS(=O)(=O)Cc1ccc2c(c1)-c1cn(C)c(=O)cc1[C@H](C)N=C2c1ccc(C#N)cc1 [Compound 4075],pIC50,BRD4 (BD1),8.40
same,pIC50,BRD4 (BD2),8.70
same,pIC50,MV-4-11 cells,8.00
"CC[C@@H]1N=C(c2ccc(F)cc2)c2cc(Cl)c(NS(=O)(=O)CC)cc2-c2cn(C)c(=O)cc21 [Compound 4065, (S)—N-(9-chloro-5-ethyl-7-(4-flurophenyl)-2-methyl-3-oxo-3,5-dihydro-2H-benzo[c]pyrido[3,4-e]azepin-10-yl)ethylsulfonamide]",pIC50,BRD4 (BD1),8.70
same,pIC50,BRD4 (BD2),9.00
same,pIC50,MV-4-11 cells,9.00
"C[C@@H]1N=C(c2ccc(F)cc2)c2ccc(CS(=O)(=O)C(F)(F)F)cc2-c2cn(C)c(=O)cc21 [Compound 4043, (S)-7-(4-flurophenyl)-2,5-dimethyl-10-((trifluoromethylsulphone)methyl)-2,5-dihydro-3H-benzo[c]pyrido[3,4-e]azepin-3-ketone]",pIC50,BRD4 (BD1),9.00
same,pIC50,BRD4 (BD2),8.70
same,pIC50,MV-4-11 cells,8.10
"CCS(=O)(=O)Cc1ccc2c(c1)-c1cn(C)c(=O)cc1[C@@H](C)N=C2c1ccc(F)cc1 [Compound 4033, (R)-10-((ethylsulfone)methyl)-7-(4-fluorophenyl)-2,5-dimethyl-2,5-dihydro-3H-benzo[c]pyrido[3,4-e]azepin-3-ketone]",pIC50,BRD4 (BD1),6.47
same,pIC50,BRD4 (BD2),6.84
same,pIC50,MV-4-11 cells,6.01
"CCS(=O)(=O)Nc1cc2c(cc1F)C(c1ccc(F)cc1)=NC(C)c1cc(=O)n(C)nc1-2 (stereo not drawn) [Compound 4095, N-(9-Fluoro-7-(4-flurophenyl)-2,5-dimethyl-3-oxo-3,5-dihydropyridin-2H-benzo[c]pyridazino[3,4-e]azepin-10-yl)ethylsulfonamide]",pIC50,BRD4 (BD1),8.30
same,pIC50,BRD4 (BD2),8.70
same,pIC50,MV-4-11 cells,7.85
"CCS(=O)(=O)Cc1ccc2c(c1)-c1cn(C)c(=O)cc1CN=C2c1ccc(F)cc1Cl [Compound 4028, 7-(2-chloro-4-fluorophenyl)-10-((ethylsulfone)methyl)-2-methyl-2,5-dihydro-3H-benzo[c]pyrido[3,4-e]azepin-3-ketone]",pIC50,BRD4 (BD1),7.66
same,pIC50,BRD4 (BD2),8.70
same,pIC50,MV-4-11 cells,6.79
"CCNC(=O)C[C@@H]1N=C(c2ccc(Cl)cc2)c2ncccc2-c2cn(C)c(=O)cc21 [Compound 4030, (S)-2-(7-(4-chlorophenyl)-2-methyl-3-oxo-3,5-dihydro-2H-dipyrido[2,3-c:3′,4′-e]azepin-5-yl)-N-ethyl acetamide]",pIC50,BRD4 (BD1),8.22
same,pIC50,BRD4 (BD2),8.70
same,pIC50,MV-4-11 cells,7.77
"CC[S+]([O-])Cc1ccc2c(c1)-c1cn(C)c(=O)cc1[C@H](C)N=C2c1ccc(F)cc1 (stereo partly drawn) [Compound 4048, (5S)-10-((ethylsulfoxide)methyl)-7-(4-flurophenyl)-2,5-dimethyl-2,5-dihydro-3H-benzo[c]pyrido[3,4-e]azepin-3-ketone]",pIC50,BRD4 (BD1),8.70
same,pIC50,BRD4 (BD2),8.70
same,pIC50,MV-4-11 cells,7.55
"CCS(=O)(=O)Cc1ccc2c(c1)-c1cn(C)c(=O)cc1[C@H](C)N=C2c1ccc(O)cc1 [Compound 4061, (S)-10-((ethylsulfonyl)methyl)-7-(4-hydroxylphenyl)-2,5-dimethyl-2,5-dihydro-3H-benzo[c]pyrido[3,4-e]azepin-3-ketone]",pIC50,BRD4 (BD1),8.70
same,pIC50,BRD4 (BD2),9.00
same,pIC50,MV-4-11 cells,7.96
"C[C@@H]1N=C(c2ccc(F)cc2)c2ccc(CS(=O)(=O)C3CC3)cc2-c2cn(C)c(=O)cc21 [Compound 4045, (S)-7-(4-flurophenyl)-2,5-dimethyl-10-((cyclopropylsulfone)methyl)-2,5-dihydro-3H-benzo[c]pyrido[3,4-e]azepin-3-ketone]",pIC50,BRD4 (BD1),9.00
same,pIC50,BRD4 (BD2),9.00
same,pIC50,MV-4-11 cells,8.10
"COc1ccc2c(c1)C(c1ccc(F)cc1)=NCc1cc(=O)n(C)cc1-2 [Compound 4020, 7-(4-fluorophenyl)-9-methoxy-2-methyl-2,5-dihydro-3H-benzo[c]pyrido[3,4-e]azepin-3-one]",pIC50,BRD4 (BD1),7.96
same,pIC50,BRD4 (BD2),8.00
same,pIC50,MV-4-11 cells,6.87
